The source of these data is patent publication US10519152B2, “Compounds and their use in treating cancer” (AstraZeneca AB, priority 2017, dated 2019).

The assay deals with T1, Estrogen Receptor (ERα) in MCF-7 human ductal carcinoma breast cell line (Homo sapiens, UniProt P03372).
T1 construct: endogenous in cells; host or cells: MCF-7
T1 sequence (P03372 1-595): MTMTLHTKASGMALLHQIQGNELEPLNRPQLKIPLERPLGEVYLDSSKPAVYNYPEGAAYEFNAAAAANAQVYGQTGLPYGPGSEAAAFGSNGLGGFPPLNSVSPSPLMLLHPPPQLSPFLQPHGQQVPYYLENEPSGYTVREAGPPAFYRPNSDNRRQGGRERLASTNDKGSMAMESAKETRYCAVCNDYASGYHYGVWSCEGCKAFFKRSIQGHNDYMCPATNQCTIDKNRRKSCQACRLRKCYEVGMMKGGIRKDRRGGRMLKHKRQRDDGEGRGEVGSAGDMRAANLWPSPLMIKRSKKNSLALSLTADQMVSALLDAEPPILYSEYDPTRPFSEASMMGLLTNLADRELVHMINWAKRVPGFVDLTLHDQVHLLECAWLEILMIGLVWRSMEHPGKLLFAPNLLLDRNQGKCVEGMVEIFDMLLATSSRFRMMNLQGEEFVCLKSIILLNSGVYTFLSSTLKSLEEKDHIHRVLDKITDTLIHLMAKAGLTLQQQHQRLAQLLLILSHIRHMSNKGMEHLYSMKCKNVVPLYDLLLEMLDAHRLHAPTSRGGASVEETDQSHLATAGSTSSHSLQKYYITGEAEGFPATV
Description: MCF-7 ER degradation assay (cell based immuno-fluorescence). The settings on record: MCF-7 cells; for ER degradation ≥ 90% at 0.3 μM: ER degradation by fulvestrant at 0.3 μM is defined as 100%; for DC50: 18-22 hours incubation, 50% reduction of ERα expression, single experiment or average of two or more, read-out: MCF-7 ER degradation IC50. The gist of the method: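 MCF-7 human ductal carcinoma breast cells were seeded at 3.75×10^4 cells per mL (40 μL per well) in 384 well plates with phenol red free DMEM containing 2 mM L-Glutamine and 5% (v/v) Charcoal/Dextran treated foetal calf serum. After overnight culture, compounds were acoustically dispensed, incubated 18-22 hours, then cells were formaldehyde-fixed and immunostained for ERα.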

Regarding `Cc1ncsc1-c1ccc([C@H](C)NC(=O)[C@@H]2C[C@@H](O)CN2C(=O)[C@@H](NC(=O)C(F)(F)OCCOCCCCOc2cc(F)c([C@@H]3c4[nH]c5ccccc5c4C[C@@H](C)N3CC(C)(C)F)c(F)c2)C(C)(C)C)cc1` [Example 122, (2S,4R)-1-((S)-2-(2-(2-(4-(3,5-Difluoro-4-((1R,3R)-2-(2-fluoro-2-methylpropyl)-3-methyl-2,3,4,9-tetrahydro-1H-pyrido[3,4-b]indol-1-yl)phenoxy)butoxy)ethoxy)-2,2-difluoroacetamido)-3,3-dimethylbutanoyl)-4-hydroxy-N—((S)-1-(4-(4-methylthiazol-5-yl)phenyl)ethyl)pyrrolidine-2-carboxamide], the “ER degradation ≥ 90% at 0.3 μM” value was “•” and the DC50 came out at 2000 pM.

Take `Cc1ncsc1-c1ccc(CNC(=O)[C@@H]2C[C@@H](O)CN2C(=O)[C@@H](NC(=O)COCC(F)(F)COCCCOc2cc(F)c([C@@H]3c4[nH]c5ccccc5c4C[C@@H](C)N3CC(C)(C)F)c(F)c2)C(C)(C)C)cc1` [Example 125, (2S,4R)-1-((S)-2-(2-(3-(3-(3,5-Difluoro-4-((1R,3R)-2-(2-fluoro-2-methylpropyl)-3-methyl-2,3,4,9-tetrahydro-1H-pyrido[3,4-b]indol-1-yl)phenoxy)propoxy)-2,2-difluoropropoxy)acetamido)-3,3-dimethylbutanoyl)-4-hydroxy-N-(4-(4-methylthiazol-5-yl)benzyl)pyrrolidine-2-carboxamide]: the “ER degradation ≥ 90% at 0.3 μM” value was “••” and the DC50 amounted to 700 pM.

Take `Cc1ncsc1-c1ccc(CNC(=O)[C@@H]2C[C@@H](O)CN2C(=O)[C@@H](NC(=O)COCCOCCC(F)(F)CCOc2cc(F)c([C@@H]3c4[nH]c5ccccc5c4C[C@@H](C)N3CC(C)(C)F)c(F)c2)C(C)(C)C)cc1` [Example 127, (2S,4R)-1-((S)-2-(2-(2-((5-(3,5-Difluoro-4-((R,3R)-2-(2-fluoro-2-methylpropyl)-3-methyl-2,3,4,9-tetrahydro-1H-pyrido[3,4-b]indol-1-yl)phenoxy)-3,3-difluoropentyl)oxy)ethoxy)acetamido)-3,3-dimethylbutanoyl)-4-hydroxy-N-(4-(4-methylthiazol-5-yl)benzyl)pyrrolidine-2-carboxamide]: the “ER degradation ≥ 90% at 0.3 μM” value was “••” and the DC50 stood at 800 pM.

As to `Cc1ncsc1-c1ccc(CNC(=O)[C@@H]2C[C@@H](O)CN2C(=O)[C@@H](NC(=O)COCCOCCCCOc2cc(F)c([C@@H]3c4[nH]c5ccccc5c4C[C@@H](C)N3CC(C)(C)F)c(F)c2)C(C)(C)C)cc1` [Example 128, (2S,4R)-1-((S)-2-(2-(2-(4-(3,5-Difluoro-4-((1R,3R)-2-(2-fluoro-2-methylpropyl)-3-methyl-2,3,4,9-tetrahydro-1H-pyrido[3,4-b]indol-1-yl)phenoxy)butoxy)ethoxy)acetamido)-3,3-dimethylbutanoyl)-4-hydroxy-N-(4-(4-methylthiazol-5-yl)benzyl)pyrrolidine-2-carboxamide], the “ER degradation ≥ 90% at 0.3 μM” value was “••” and the DC50 came out at 600 pM.

As to `Cc1ncsc1-c1ccc(CNC(=O)[C@@H]2C[C@@H](O)CN2C(=O)[C@@H](NC(=O)COCCCOCCCCOc2cc(F)c([C@@H]3c4[nH]c5ccccc5c4C[C@@H](C)N3CC(C)(C)F)c(F)c2)C(C)(C)C)cc1` [Example 129, (2S,4R)-1-((S)-2-(2-(3-(4-(3,5-Difluoro-4-((1R,3R)-2-(2-fluoro-2-methylpropyl)-3-methyl-2,3,4,9-tetrahydro-1H-pyrido[3,4-b]indol-1-yl)phenoxy)butoxy)propoxy)acetamido)-3,3-dimethylbutanoyl)-4-hydroxy-N-(4-(4-methylthiazol-5-yl)benzyl)pyrrolidine-2-carboxamide], the “ER degradation ≥ 90% at 0.3 μM” value is listed as “••” and the DC50 was found to be 800 pM.

With `Cc1ncsc1-c1ccc(CNC(=O)[C@@H]2C[C@@H](O)CN2C(=O)[C@@H](NC(=O)COCCC(F)(F)CCOc2cc(F)c([C@@H]3c4[nH]c5ccccc5c4C[C@@H](C)N3CC(C)(C)F)c(F)c2)C(C)(C)C)cc1` [Example 130, (2S,4R)-1-((S)-2-(2-((5-(3,5-Difluoro-4-((1R,3R)-2-(2-fluoro-2-methylpropyl)-3-methyl-2,3,4,9-tetrahydro-1H-pyrido[3,4-b]indol-1-yl)phenoxy)-3,3-difluoropentyl)oxy)acetamido)-3,3-dimethylbutanoyl)-4-hydroxy-N-(4-(4-methylthiazol-5-yl)benzyl)pyrrolidine-2-carboxamide], the “ER degradation ≥ 90% at 0.3 μM” value is “•” and the DC50 was found to be 500 pM.

For the molecule `Cc1ncsc1-c1ccc(CNC(=O)[C@@H]2C[C@@H](O)CN2C(=O)[C@@H](NC(=O)CNCCC(F)(F)CCOc2cc(F)c([C@@H]3c4[nH]c5ccccc5c4C[C@@H](C)N3CC(C)(C)F)c(F)c2)C(C)(C)C)cc1` [Example 131, (2S,4R)-1-((S)-2-(2-((5-(3,5-Difluoro-4-((1R,3R)-2-(2-fluoro-2-methylpropyl)-3-methyl-2,3,4,9-tetrahydro-1H-pyrido[3,4-b]indol-1-yl)phenoxy)-3,3-difluoropentyl)amino)acetamido)-3,3-dimethylbutanoyl)-4-hydroxy-N-(4-(4-methylthiazol-5-yl)benzyl)pyrrolidine-2-carboxamide], the “ER degradation ≥ 90% at 0.3 μM” value is “•” and the DC50 was found to be 800 pM.

As for `Cc1ncsc1-c1ccc(CNC(=O)[C@@H]2C[C@@H](O)CN2C(=O)[C@@H](NC(=O)COCc2cccc(COc3cc(F)c([C@@H]4c5[nH]c6ccccc6c5C[C@@H](C)N4CC(C)(C)F)c(F)c3)n2)C(C)(C)C)cc1` [Example 132, (2S,4R)-1-((S)-2-(2-((6-((3,5-Difluoro-4-((1R,3R)-2-(2-fluoro-2-methylpropyl)-3-methyl-2,3,4,9-tetrahydro-1H-pyrido[3,4-b]indol-1-yl)phenoxy)methyl)pyridin-2-yl)methoxy)acetamido)-3,3-dimethylbutanoyl)-4-hydroxy-N-(4-(4-methylthiazol-5-yl)benzyl)pyrrolidine-2-carboxamide], the “ER degradation ≥ 90% at 0.3 μM” value was “•” and the DC50 is 600 pM.

Consider `Cc1ncsc1-c1ccc(CNC(=O)[C@@H]2C[C@@H](O)CN2C(=O)[C@@H](NC(=O)COCc2ccnc(COc3cc(F)c([C@@H]4c5[nH]c6ccccc6c5C[C@@H](C)N4CC(C)(C)F)c(F)c3)c2)C(C)(C)C)cc1` [Example 134, (2S,4R)-1-((S)-2-(2-((2-((3,5-Difluoro-4-((1R,3R)-2-(2-fluoro-2-methylpropyl)-3-methyl-2,3,4,9-tetrahydro-1H-pyrido[3,4-b]indol-1-yl)phenoxy)methyl)pyridin-4-yl)methoxy)acetamido)-3,3-dimethylbutanoyl)-4-hydroxy-N-(4-(4-methylthiazol-5-yl)benzyl)pyrrolidine-2-carboxamide], for which the “ER degradation ≥ 90% at 0.3 μM” value is “•” and the DC50 turned out to be 500 pM.

Take `Cc1ncsc1-c1ccc(CNC(=O)[C@@H]2C[C@@H](O)CN2C(=O)[C@@H](NC(=O)COCCCCCOCCCOc2cc(F)c([C@@H]3c4[nH]c5ccccc5c4C[C@@H](C)N3CC(C)(C)F)c(F)c2)C(C)(C)C)cc1` [Example 136, (2S,4R)-1-((S)-2-(2-((5-(3-(3,5-Difluoro-4-((1R,3R)-2-(2-fluoro-2-methylpropyl)-3-methyl-2,3,4,9-tetrahydro-1H-pyrido[3,4-b]indol-1-yl)phenoxy)propoxy)pentyl)oxy)acetamido)-3,3-dimethylbutanoyl)-4-hydroxy-N-(4-(4-methylthiazol-5-yl)benzyl)pyrrolidine-2-carboxamide]: the “ER degradation ≥ 90% at 0.3 μM” value is given as “••” and the DC50 came to 1100 pM.

For the molecule `Cc1ncsc1-c1ccc([C@H](C)NC(=O)[C@@H]2C[C@@H](O)CN2C(=O)[C@@H](NC(=O)COCCCOCCCCCOc2cc(F)c([C@@H]3c4[nH]c5ccccc5c4C[C@@H](C)N3CC(C)(C)F)c(F)c2)C(C)(C)C)cc1` [Example 137, (2S,4R)-1-((S)-2-(2-(3-((5-(3,5-Difluoro-4-((R,3R)-2-(2-fluoro-2-methylpropyl)-3-methyl-2,3,4,9-tetrahydro-1H-pyrido[3,4-b]indol-1-yl)phenoxy)pentyl)oxy)propoxy)acetamido)-3,3-dimethylbutanoyl)-4-hydroxy-N—((S)-1-(4-(4-methylthiazol-5-yl)phenyl)ethyl)pyrrolidine-2-carboxamide], the “ER degradation ≥ 90% at 0.3 μM” value is “••” and the DC50 is 800 pM.

Take `Cc1ncsc1-c1ccc(CNC(=O)[C@@H]2C[C@@H](O)CN2C(=O)[C@@H](NC(=O)COCCCOCCCCCOc2cc(F)c([C@@H]3c4[nH]c5ccccc5c4C[C@@H](C)N3CC(C)(C)F)c(F)c2)C(C)(C)C)cc1` [Example 138, (2S,4R)-1-((S)-2-(2-(3-((5-(3,5-Difluoro-4-((R,3R)-2-(2-fluoro-2-methylpropyl)-3-methyl-2,3,4,9-tetrahydro-1H-pyrido[3,4-b]indol-1-yl)phenoxy)pentyl)oxy)propoxy)acetamido)-3,3-dimethylbutanoyl)-4-hydroxy-N-(4-(4-methylthiazol-5-yl)benzyl)pyrrolidine-2-carboxamide]: the “ER degradation ≥ 90% at 0.3 μM” value was “••” and the DC50 is 1100 pM.
